Test results from patent US12016959B2, “Sustained drug release sheet for treating nerve injury” (OSAKA UNIVERSITY, priority 2016, dated 2024).

Legend:
[1] = test system: rat sciatic nerve crush injury model; test: Sensory function, von Frey filament test, rat sciatic nerve crush injury model; type: in vivo; conditions: 6 weeks after surgery; untreated group 117.8±11.7 g; mean±SEM
Protocol: (§1) All of animal experiments were went ahead with the approval of the Ethics Committee of the animal laboratory of Osaka University. Six-week-old male Wistar rats (body weights: about 200 g) were used. All of the surgeries were carried out while applying deep sedation with a mixed anesthetic drug composed of midazolam (2 mg/kg), butorphanol (2.5 mg/kg) and medetomidine (0.15 mg/kg). A left sciatic nerve was exposed under clean operations, and a crush injury was applied to a position 5 mm distal to a sciatic notch with a pair of forceps. The time of crushing was 10 seconds, the frequency of crushing operations was three times, and the intervals between the crushing operations was 10 seconds. The fascia and the skin were sutured together with 4-0 nylon. […] The systemic administration of methylcobalamin was performed by placing an osmotic minipump (Model 2ML2; Alzet, Cupertino, CA, USA) under the skin of the back. […]
For the evaluation of a sensory function, a mechanical hind paw withdrawal threshold was measured 6 weeks after the surgery using a von Frey filament (0.008 to 26 g; Touch Test, North Coast Medical Inc, Gilroy, CA, USA). Each of the rats was made walk on a metallic mesh, then a pressure was applied onto the center of the sole until the filament began to bend, and then a value at which the rat evoked an escape behavior was recorded.

[2] = test system: rat sciatic nerve crush injury model; test: Histological evaluation (axons, MBP-positive axons), rat sciatic nerve crush injury model; type: in vivo; conditions: 6 weeks after surgery, mean±SEM
Protocol: (§2) All of animal experiments were went ahead with the approval of the Ethics Committee of the animal laboratory of Osaka University. Six-week-old male Wistar rats (body weights: about 200 g) were used. All of the surgeries were carried out while applying deep sedation with a mixed anesthetic drug composed of midazolam (2 mg/kg), butorphanol (2.5 mg/kg) and medetomidine (0.15 mg/kg). A left sciatic nerve was exposed under clean operations, and a crush injury was applied to a position 5 mm distal to a sciatic notch with a pair of forceps. The time of crushing was 10 seconds, the frequency of crushing operations was three times, and the intervals between the crushing operations was 10 seconds. The fascia and the skin were sutured together with 4-0 nylon. […] The systemic administration of methylcobalamin was performed by placing an osmotic minipump (Model 2ML2; Alzet, Cupertino, CA, USA) under the skin of the back. All of the surgeries were carried out by the same practitioner.
Each of the rats 6 weeks after the surgery was sedated with an anesthetic drug, and a left sciatic nerve was collected therefrom and then fixed with 4% PFA for 5 days and with 20% sucrose for 24 hours and then frozen and embedded. […] The total number of axons and the ratio of myelinated axons (total number of MBP-positive axons)/(total number of axons) were evaluated.

neurons = conditions: Non-Patent Document 2; cited from earlier work
[3] = test system: rat sciatic nerve injury model; conditions: continuous high-dose administration; Non-Patent Document 2; cited from earlier work
Erk1/2 and Akt = conditions: through the methylation cycle; Non-Patent Document 2; cited from earlier work
[4] = test system: rat sciatic nerve crush injury model; test: Motor function, sciatic function index (SFI), rat sciatic nerve crush injury model; type: in vivo; conditions: 6 weeks after surgery; 0 = normal, −100 = impaired; untreated group −20.6±4.2; mean±SEM
Protocol: as §1
For the evaluation of a motor function, a sciatic function index (SFI) was measured 6 weeks after the surgery. For the measurement of an SFI, an ink was applied to the back paw of a rat, then the rat was allowed to walk on office paper placed on a 40 cm-square horizontal table, and then foot prints of the rat were recorded. The four items mentioned below were measured to calculate an SFI. […] An SFI value was calculated in accordance with the following mathematical formula. […]

[5] = Concentration of vitamin B12 (drug) in blood, rat sciatic nerve crush injury model; type: in vivo; conditions: 6 weeks after surgery; mean±SEM
Protocol: The examination on the sheet that contained the present extract as a drug was carried out in the same manner.
Blood was collected in an amount of 1 mL from the left ventricle of a rat under anesthesia 6 weeks after the surgery. The collected blood was centrifuged at 800×g for 20 minutes to collect a supernatant. The measurement of a concentration of vitamin B12 in the blood was entrusted to BML, INC. (Tokyo).

[6] = test system: rat sciatic nerve crush injury model; test: Electrophysiological evaluation (CMAP, TL, NCV), rat sciatic nerve crush injury model; type: in vivo; conditions: 6 weeks after surgery, mean±SEM
Protocol: as §2
Each of the rats 3 or 6 weeks after the surgery was sedated with an anesthetic drug and was then placed on an operating table in a prone position. A left sciatic nerve and a left tibialis anterior muscle were exposed. Each of a compound muscle action potential (CMAP) and a terminal latency (TL) was measured while stimulating a proximal site of a sciatic nerve with a bipolar electrode. A nerve conduction velocity (NCV) was calculated from measurement values respectively obtained at a proximal site and a distal site to the sciatic nerve crush injury while stimulating the positions with a bipolar electrode. In the measurement and the evaluation, AD Instruments Power Lab 2/26, Stimulus isolator, and Bio Amp and Chart & Scope software (all manufactured by AD Instruments, Bel la Vista, NSW, Australis) were used.

SMILES: C/C1=C2/[N-][C@H]([C@H](CC(N)=O)[C@@]2(C)CCC(=O)NC[C@@H](C)OP(=O)([O-])O[C@H]2[C@@H](O)[C@@H](n3cnc4cc(C)c(C)cc43)O[C@@H]2CO)[C@]2(C)N=C(/C(C)=C3N=C(/C=C4N=C1[C@@H](CCC(N)=O)C\4(C)C)[C@@H](CCC(N)=O)[C@]\3(C)CC(N)=O)[C@@H](CCC(N)=O)[C@]2(C)CC(N)=O.[CH3-].[Co+3] [MeCbl pump, methylcobalamin]
- von Frey filament test, mechanical hind paw withdrawal threshold [1]: 77.8 ± 7.0 g
- ratio of myelinated axons (number of MBP-positive axons)/(total number of axons) ([2]; untreated group 85.0±0.9%): 91.5±0.6%
- number of regenerated axons per sq. mm ([2]; untreated group 2843±68/mm^2): 2735±77 /mm^2
- concentration that can promote the elongation of neurites and the survival of neurons (neurons): ≥ 100 nM
- nerve regeneration and function recovery [3]: improves nerve regeneration and function recovery
- activities of Erk1/2 and Akt (Erk1/2 and Akt): increase the activities of Erk1/2 and Akt
- sciatic function index (SFI) [4]: −10.5±2.0
- concentration of vitamin B12 in the blood [5]: 18.35 ± 2.27 ng/mL
- terminal latency (TL) ([6]; untreated group 3.45±0.08 ms): 3.24 ± 0.07 ms
- compound muscle action potential (CMAP) ([6]; untreated group 19.5±2.3 mV): 19.5±1.5 mV
- nerve conduction velocity (NCV) ([6]; untreated group 28.2±2.5 m/s): 43.2±2.5 m/s
